Read-outs that look alike come from different tables or passages of the source. Marks after values point to notes of the source that are not given here.
Key:
Format in all cases: in vivo
male ICR mice = experiment: MES test (anti-epilepsy activity), mice, oral (mMES po); details: Mus musculus; for responders at 50 mg/kg: injection amount 50 mg/kg; for responders at 50 mg/kg / responders at 100 mg/kg / responders at 30 mg/kg: read-out: mMES(po) Protection %; for ED50: mice, at peak time; for responders at 100 mg/kg: injection amount 100 mg/kg; for responders at 30 mg/kg: injection amount 30 mg/kg
Protocol: (§1) Biological Experimental Example. 1: Measurement of Anti-Epilepsy Activity (MES-Test)
(§2) In the MES test (Ref., G. Villetti et al. Neuropharmacology 40(2001) 866-878), an electrical stimulus (mice: 50 mA, 60 Hz, 0.2 sec, and rats: 150 mA, 60 Hz, 0.2 sec in the test animal) supplied by an 11 A Shocker (IITC Life Science Company) was delivered through corneal electrodes. All mice or rats assigned to any electroshock at peak time were treated with each test compound sample which was dissolved in 20% tween 80 prepared by saline solvent applied orally before the test. […] Three doses of the test sample were administered orally to 9-18 animals (3-6 mice per dose) for evaluating the respective doses at which 50% of the animals were protected from seizure (ED50). The ED50 value (median effective close) was calculated by Litchfield and Wicoxon log-probit method which is a dose-response relationship. Experimental animals, male ICR mice and male SD rats, were purchased from OrientBio, Samtako, or Nara Biotech, Korea, and housed in cages (4-5 mice or 3 rats per cage) for 4-5 days. The range of mice body weight was between 19 and 25 grams and range of rats body weight was between 100 and 130 grams.
(§3) The obtained results are shown as mean±sem. The difference between the groups was statistically analyzed by ANOVA, and then further examined by Dunnett's test or Bonferroni test. If p is less than 0.05, it was determined that the difference between the groups had statistical significance.
(§4) The results of anti-epileptic activity of the sulfamate derivative compounds measured in the above Experimental Example are shown in the following Tables 4 and 5.

male SD rats = experiment: MES test (anti-epilepsy activity), rats, oral (rMES po); details: for ED50: Rattus norvegicus, rats, at peak time
Protocol: as §1, §2, §3, §4

Male Sprague-Dawley rats [1] = experiment: Lithium-pilocarpine induced epilepsy test (LI-PILO), prevention test, i.p.; details: for Anti-epileptogenesis (rat/ip) Protection %: 6 rats
Protocol: Biological Experimental Example 2: Lithium-Pilocarpine Induced Epilepsy Test (LI-PILO Test)
Male Sprague-Dawley rats (purchased from Orient Bio Inc. Korea) of body weight 175 grams were used for these studies and 3 rats per cage were housed for 4-5 days. On the day prior to SE, rats received 127 mg/kg lithium chloride (Sigma, St. Louis, Mo., U.S.A.) intraperitoneally (i.p.). Approximately 18-20 h following this treatment, rats were given an i.p. injection of 43 mg/kg pilocarpine (Sigma). An i.p. injection of 2 mg/kg methyl-scopolamine (Sigma) was administered 30 min prior to pilocarpine to block the effects of the muscarinic agonist on peripheral cholinergic receptors. Test drugs were dissolved in 20% tween80 (Sigma).
The drugs were administered intraperitoneally (i.p.) in a volume of 2 ul/g body weight. Pharmacological effects of all of the test materials were evaluated to compare test groups (n=6) with a control group (n=6). Control group was administered vehicle only. The efficacy was measured 0.5, 1, 2, or 4 hours after the administration of the test material. The time point that the most animals were protected was defined as peak time and the ED50 was determined at peak time. The animals were then transferred to observation cages and observed continuously for 90 min. Seizure was elicited in approximately 95% of the control group. Protection was defined as complete absence of seizure grade 3˜5 (Racine scale; Racine, 1972) over the 90-min observation period. The effective dose of the compound necessary to protect 50% of the animals against seizures compared to controls (i.e. ED50) was determined by a curve fitting program (Excel 2007, Microsoft).
The results of Lithium-pilocarpine induced epilepsy test of the sulfamate derivative compounds measured in the above Experimental Example are shown in the following Tables 6.

Male Sprague-Dawley rats [2] = experiment: as above; details: injection amount 30 mg/kg, 3 rats, 1 h
[3] = injection amount 150 mg/kg, 2 h

CC1(C)OC(COS(N)(=O)=O)C(c2ccccc2Cl)O1 (mixture of isomers) [Example 4, (5-(2-chlorophenyl)-2,2-dimethyl-1,3-dioxolan-4-yl)methyl sulfamate(SR & RS mixture)]
responders at 50 mg/kg (male ICR mice; 3 mice): 33% | ED50 (male SD rats): 5.2 mg/kg

CC1(C)O[C@@H](COS(N)(=O)=O)[C@H](c2ccc(Cl)s2)O1 [Example 172, ((4S, 5R)-2,2-dimethyl-5-(5-chlorothiophen-2-yl)-1,3-dioxolan-4-yl)methylsulfamate]
ED50 (male ICR mice): 30.2 mg/kg | ED50 (male SD rats): 4.7 mg/kg

Cc1ncsc1[C@@H]1OC(C)(C)O[C@H]1COS(N)(=O)=O [Example 168, ((4S, 5R)-2,2-dimethyl-5-(4-methylthiazol-5-yl)-1,3-dioxolan-4-yl)methylsulfamate]
responders at 100 mg/kg (male ICR mice; 3 mice): 100% | ED50 (male SD rats): 4.9 mg/kg

CC1(C)O[C@H](c2ccccc2F)[C@@H](COS(N)(=O)=O)O1 [Example 15, ((4R, 5R)-5-(2-fluorophenyl)-2,2-dimethyl-1,3-dioxolan-4-yl)methyl sulfamate]
responders at 50 mg/kg (male ICR mice; 4 mice): 100% | Anti-epileptogenesis (rat/ip) Protection % (Male Sprague-Dawley rats [1]; injection amount 100 mg/kg, 1 h): (16.6%) | Anti-epileptogenesis (rat/ip) Protection % (Male Sprague-Dawley rats [1]; injection amount 100 mg/kg, 2 h): (50%) | Anti-epileptogenesis (rat/ip) Protection % (Male Sprague-Dawley rats [1]; [3]): 150^b(16.6%) | rMES(po) Protection % (male SD rats; injection amount 50 mg/kg, 6 rats): 50^b(66.6%)

NS(=O)(=O)OC[C@@H]1OC(=O)O[C@H]1c1ccccc1[N+](=O)[O-] [Example 90, ((4S, 5S)-5-(2-nitrophenyl)-2-oxo-1,3-dioxolan-4-yl)methyl sulfamate]
ED50 (male ICR mice): 9.2 mg/kg | ED50 (male SD rats): 1.1 mg/kg

CC1(C)O[C@@H](COS(N)(=O)=O)[C@H](c2ccccc2I)O1 [Example 28, ((4S, 5S)-5-(2-iodophenyl)-2,2-dimethyl-1,3-dioxolan-4-yl)methyl sulfamate]
ED50 (male ICR mice): 15 mg/kg | ED50 (Male Sprague-Dawley rats [1]; ip, rat, prevention, at peak time, read-out: Anti-epileptogenesis (rat/ip) ED50(mg/kg)): 154 mg/kg | Anti-epileptogenesis (rat/ip) Peak Time (Male Sprague-Dawley rats [1]; rat, prevention): 1 h | ED50 (male SD rats): 32.7 mg/kg

CC1(C)O[C@@H](COS(N)(=O)=O)[C@H](c2cnc(Cl)s2)O1 [Example 166, ((4R, 5S)-5-(2-chlorothiazol-5-yl)-2,2-dimethyl-1,3-dioxolan-4-yl)methylsulfamate]
responders at 100 mg/kg (male ICR mice; 3 mice): 100% | ED50 (male SD rats): 1.9 mg/kg

Nc1ccccc1[C@@H]1OC2(CCCC2)O[C@H]1COS(N)(=O)=O [Example 72, ((2S, 3S)-3-(2-aminophenyl)-1,4-dioxaspiro[4,4]nonan-2-yl)methyl sulfamate]
ED50 (male ICR mice): 14.2 mg/kg | ED50 (male SD rats): 1 mg/kg

CC1(C)O[C@@H](COS(=O)(=O)[NH][Na])[C@H](c2ccccc2N)O1 [Example 66]
ED50 (male ICR mice): 12.3 mg/kg | ED50 (male SD rats): 11.8 mg/kg

Cc1ncsc1[C@H]1OC(C)(C)O[C@@H]1COS(N)(=O)=O [Example 167, ((4R, 5S)-2,2-dimethyl-5-(4-methylthiazol-5-yl)-1,3-dioxolan-4-yl)methylsulfamate]
Anti-epileptogenesis (rat/ip) Protection % (Male Sprague-Dawley rats [2]): 30^a(100%) | responders at 100 mg/kg (male ICR mice; 3 mice): 100% | Anti-epileptogenesis (rat/ip) Peak Time (Male Sprague-Dawley rats [1]; rat, prevention): 1 h

CC1(C)O[C@@H](COS([NH-])(=O)=O)[C@H](c2ccccc2Cl)O1.[Na+] [Example 177, sodium ((((4S,5S)-5-(2-chlorophenyl)-2,2-dimethyl-1,3-dioxolan-4-yl)methoxy)sulfonyl)amide]
rMES(po) Protection % (male SD rats; injection amount 3.5 mg/kg, 3 rats): 3.5^a (100%)

CC1(C)O[C@@H](COS(N)(=O)=O)[C@H](c2ccccc2F)O1 [Example 16, ((4S, 5S)-5-(2-fluorophenyl)-2,2-dimethyl-1,3-dioxolan-4-yl)methyl sulfamate]
responders at 50 mg/kg (male ICR mice; 3 mice): 100% | ED50 (male SD rats): 7.7 mg/kg

CC1(C)O[C@H](c2sc(Cl)nc2Cl)[C@@H](COS(N)(=O)=O)O1 [Example 163, ((4R, 5S)-5-(2,4-dichlorothiazol-5-yl)-2,2-dimethyl-1,3-dioxolan-4-yl)methyl sulfamate]
responders at 50 mg/kg (male ICR mice; 4 mice): 50% | ED50 (male SD rats): 6.5 mg/kg

CCC1(CC)O[C@@H](COS(N)(=O)=O)[C@H](c2ccccc2)O1 [Example 108, ((4S, 5S)-5-phenyl-2,2-diethyl-1,3-dioxolan-4-yl)methyl sulfamate]
responders at 50 mg/kg (male ICR mice; 3 mice): 100%

Cc1nc(Cl)sc1[C@@H]1OC(C)(C)O[C@H]1COS(N)(=O)=O [Example 170, ((4S, 5R)-2,2-dimethyl-5-(2-chloro-4-methylthiazol-5-yl)-1,3-dioxolan-4-yl)methylsulfamate]
responders at 100 mg/kg (male ICR mice; 3 mice): 100%

Cc1nc(Cl)sc1[C@H]1OC(C)(C)O[C@@H]1COS(N)(=O)=O [Example 169, ((4R, 5S)-2,2-dimethyl-5-(2-chloro-4-methylthiazol-5-yl)-1,3-dioxolan-4-yl)methylsulfamate]
responders at 30 mg/kg (male ICR mice; 3 mice): 100% | rMES(po) Protection % (male SD rats; injection amount 15 mg/kg, 3 rats): 15^a (100%)

CC1(C)O[C@H](c2ccccc2Cl)[C@@H](COS(N)(=O)=O)O1 [Example 1, ((4R,5R)-5-(2-chlorophenyl)-2,2-dimethyl-1,3-dioxolan-4-yl)methyl sulfamate]
ED50 (male ICR mice): 6.5 mg/kg | Anti-epileptogenesis (rat/ip) Protection % (Male Sprague-Dawley rats [1]; [3]): (50%) | Anti-epileptogenesis (rat/ip) Peak Time (Male Sprague-Dawley rats [1]; rat, prevention): 2 h | ED50 (male SD rats): 1.2 mg/kg

CCC1(CC)O[C@H](COS(N)(=O)=O)[C@@H](Cc2ccccc2)O1 [Example 124, ((4R, 5R)-5-benzyl-2,2-diethyl-1,3-dioxolan-4-yl)methyl sulfamate]
responders at 50 mg/kg (male ICR mice; 3 mice): 100%

CC1(C)O[C@@H](CCOS(N)(=O)=O)[C@H](c2ccccc2)O1 [Example 130, 2-((4S, 5S)-5-phenyl-2,2-dimethyl-1,3-dioxolan-4-yl)ethyl sulfamate]
responders at 50 mg/kg (male ICR mice; 3 mice): 33.3%

CC1(C)O[C@@H](COS(N)(=O)=O)[C@H](c2sc(Cl)nc2Cl)O1 [Example 164, ((4S, 5R)-5-(2,4-dichlorothiazol-5-yl)-2,2-dimethyl-1,3-dioxolan-4-yl)methyl sulfamate]
responders at 50 mg/kg (male ICR mice; 3 mice): 100% | ED50 (male SD rats): 13.2 mg/kg

CCC1(CC)O[C@@H](COS(N)(=O)=O)[C@H](c2ccccc2Cl)O1 [Example 8, ((4S, 5S)-5-(2-chlorophenyl)-2,2-diethyl-1,3-dioxolan-4-yl)methyl sulfamate]
responders at 50 mg/kg (male ICR mice; 4 mice): 100%

CC1(C)O[C@@H](COS(N)(=O)=O)[C@H](c2ccccc2)O1 [Example 106, ((4S, 5S)-5-phenyl-2,2-dimethyl-1,3-dioxolan-4-yl)methyl sulfamate]
responders at 30 mg/kg (male ICR mice; 3 mice): 100%

CC1(C)OC(COS(N)(=O)=O)C(c2ccncc2Cl)O1 (stereo not drawn) [Example 173, (5-(3-chloropyridin-4-yl)-2,2-dimethyl-1,3-dioxolan-4-yl)methylsulfamate]
responders at 100 mg/kg (male ICR mice; 3 mice): 100%

CC1O[C@@H](COS(N)(=O)=O)[C@H](c2ccccc2Cl)O1 (stereo partly drawn) [Example 6, ((4S, 5S)-5-(2-chlorophenyl)-2-methyl-1,3-dioxolan-4-yl)methyl sulfamate]
responders at 50 mg/kg (male ICR mice; 3 mice): 33%

NS(=O)(=O)OCC[C@@H]1OC2(CCCC2)O[C@H]1c1ccccc1Cl [Example 158, 2-((2S, 3S)-3-(2-chlorophenyl)-1,4-dioxaspiro[4,4]nonan-2-yl)ethyl sulfamate]
responders at 50 mg/kg (male ICR mice; 3 mice): 100%

CC1(C)O[C@@H](COS(N)(=O)=O)[C@H](c2ccsc2)O1 [Example 171, ((4S, 5S)-2,2-dimethyl-5-(thiophen-3-yl)-1,3-dioxolan-4-yl)methylsulfamate]
ED50 (male ICR mice): 43.3 mg/kg

CC1(C)O[C@@H](CCOS(N)(=O)=O)[C@H](c2ccccc2Cl)O1 [Example 154, 2-((4S, 5S)-5-(2-chlorophenyl)-2,2-dimethyl-1,3-dioxolan-4-yl)ethyl sulfamate]
responders at 50 mg/kg (male ICR mice; 3 mice): 100%

NS(=O)(=O)OC[C@H]1OC2(CCCC2)O[C@@H]1Cc1ccccc1Cl [Example 150, ((2R, 3R)-3-(2-chlorobenzyl)-1,4-dioxaspiro[4,4]nonan-2-yl)methyl sulfamate]
responders at 50 mg/kg (male ICR mice; 3 mice): 100%
